Experimental data from patent US20170202838A1, “IMMUNOMODULATOR” (TAIHO PHARMACEUTICAL CO., LTD., priority 2015, published 2017).

Columns and labels:
mouse spleen cells = experiment: Induction of IL-2 production of mouse spleen cells stimulated with anti-CD3 antibody and anti-CD28 antibody (Example 1); type: cell-based
Procedure: The mouse spleen was extracted, grinded with glass slides with frosted areas, and then subjected to hemolysis, so as to obtain spleen cells. The resulting spleen cells were introduced into a complete medium (i.e., RPMI-1640 supplemented with 10% heat-inactivated FBS, 100 U/ml penicillin, 100 μg/ml streptomycin, and 55 μM 2-mercaptoethanol) to a cell density of 2×10^6 cells/ml, the anti-CD3 antibody and the anti-CD28 antibody were added thereto to the final concentrations of 3 μg/ml and 0.5 μg/ml, respectively, and Compound (I) was further added thereto to each final concentration. The culture solution was seeded in a 96-well plate at 200 μl/well and then cultured in an incubator at 37° C. in the presence of 5% CO2 for 2 days. The culture supernatant was recovered, and the concentration of IL-2 contained therein was measured via ELISA using anti-mIL-2 antibody.
Also, culture was conducted in the same manner with the addition of the anti-CD3 antibody at a variable final concentration, the anti-CD28 antibody at the final concentration of 0.5 μg/ml, and Compound (I) at the final concentration of 0.0 μM or 0.1 μM, and the IL-2 concentration in the culture supernatant was measured.

[1] = tested on: human peripheral blood mononuclear cells; experiment: Induction of IL-2 production of PHA-M-stimulated human peripheral blood mononuclear cells (Example 2); type: cell-based; settings: PHA-M 5 μg/ml, 3 days, ELISA (FIG. 3)
Procedure: Human peripheral blood mononuclear cells were introduced into a human complete medium (i.e., RPMI-1640 supplemented with 10% heat-inactivated FBS, 100 U/ml penicillin, and 100 μg/ml streptomycin) to prepare a cell suspension (1×10^6 cells/ml). Phytohemagglutinin M (PHA-M) was added thereto to the final concentration of 5 μg/ml, and Compound (I) or an EGFR tyrosine kinase inhibitor (AZD9291) was further added thereto to each final concentration. This culture solution was seeded in a 96-well plate at 200 μl/well and then cultured in an incubator at 37° C. in the presence of 5% CO2 for 3 days. The culture supernatant was recovered, and the concentration of IL-2 therein was measured via ELISA using the anti-hIL-2 antibody.

EGFR tyrosine kinase = EGFR tyrosine kinase (Homo sapiens, UniProt P00533); settings: known from WO 2013/125709; cited from earlier work
EGFR tyrosine kinase, sequence (P00533 25-1210): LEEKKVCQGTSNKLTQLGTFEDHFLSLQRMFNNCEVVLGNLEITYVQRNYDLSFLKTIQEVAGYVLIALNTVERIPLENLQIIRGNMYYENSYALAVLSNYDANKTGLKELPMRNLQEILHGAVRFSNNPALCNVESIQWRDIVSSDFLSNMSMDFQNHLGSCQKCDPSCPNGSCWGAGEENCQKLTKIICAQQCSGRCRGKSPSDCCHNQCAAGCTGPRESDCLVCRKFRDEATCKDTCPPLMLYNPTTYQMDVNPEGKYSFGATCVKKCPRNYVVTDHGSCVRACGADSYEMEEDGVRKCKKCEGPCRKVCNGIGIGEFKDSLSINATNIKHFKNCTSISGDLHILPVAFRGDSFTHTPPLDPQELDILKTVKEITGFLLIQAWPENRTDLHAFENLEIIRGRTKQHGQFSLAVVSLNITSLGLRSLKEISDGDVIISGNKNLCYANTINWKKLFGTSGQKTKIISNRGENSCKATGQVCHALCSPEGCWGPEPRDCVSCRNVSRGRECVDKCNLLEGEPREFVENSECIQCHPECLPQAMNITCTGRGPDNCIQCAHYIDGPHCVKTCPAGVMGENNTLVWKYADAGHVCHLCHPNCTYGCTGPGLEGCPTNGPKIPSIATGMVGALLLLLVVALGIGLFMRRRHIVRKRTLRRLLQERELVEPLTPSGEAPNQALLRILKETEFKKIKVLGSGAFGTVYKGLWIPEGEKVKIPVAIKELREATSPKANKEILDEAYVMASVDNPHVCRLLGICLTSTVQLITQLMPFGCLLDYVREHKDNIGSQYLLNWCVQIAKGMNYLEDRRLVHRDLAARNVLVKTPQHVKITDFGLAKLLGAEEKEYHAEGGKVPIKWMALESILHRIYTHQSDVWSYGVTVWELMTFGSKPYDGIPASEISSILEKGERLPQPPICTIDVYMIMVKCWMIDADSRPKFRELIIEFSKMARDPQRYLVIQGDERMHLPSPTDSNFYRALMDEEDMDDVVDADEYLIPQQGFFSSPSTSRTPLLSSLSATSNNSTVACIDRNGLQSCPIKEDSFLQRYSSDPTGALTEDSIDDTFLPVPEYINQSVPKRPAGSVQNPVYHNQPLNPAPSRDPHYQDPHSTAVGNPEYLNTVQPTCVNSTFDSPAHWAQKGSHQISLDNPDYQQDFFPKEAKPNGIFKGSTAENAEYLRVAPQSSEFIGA

[2] = tested on: human peripheral blood mononuclear cells; experiment: Induction of cytokine production in human peripheral blood mononuclear cells, Bio-Plex Pro cytokine assay (Example 7); type: cell-based; settings: 2 days culture, no stimulant (FIG. 9)
Procedure: Human peripheral blood mononuclear cells were introduced into a human complete medium (i.e., RPMI-1640 supplemented with 10% heat-inactivated FBS, 100 U/ml penicillin, and 100 μg/ml streptomycin) to prepare a cell suspension (1×10^5 cells/ml). Compound (I), the EGFR tyrosine kinase inhibitor (i.e., AZD9291 or Erlotinib), or a cytokine-inducing positive control (i.e., Imiquimod) was added to the cell suspension. A control group to which the EGFR tyrosine kinase inhibitor and others were not added was also prepared (i.e., the non-treatment group). The culture solution was cultured in an incubator at 37° C. in the presence of 5% CO2 for 2 days. The culture supernatant was recovered, and various types of cytokines were inspected with the use of the Bio-Plex Pro human cytokine assay kit.

MC38 = experiment: In vitro growth of mouse colon cancer cell line MC38, CellTiter-Glo2.0 (Reference Example 1); type: cell-based; settings: MC38, 3 days culture
Procedure: The mouse melanoma cell lines B16F10 and K1735M2 and the mouse colon cancer cell line MC38 were seeded in a 96-well plate at 3×10^3 cells/well. Compound (I) or the EGFR tyrosine kinase inhibitor (i.e., Erlotinib, Afatinib, AZD9291, or Co1686 (Rociletinib)) that had been diluted to the given concentration was added 24 hours later. Thereafter, culture was conducted for 3 days, and the number of cells was determined using CellTiter-Glo2.0 (Promega, G9243).

[3] = tested on: C57BL/6N mouse spleen cells mixed with irradiated BALB/c mouse spleen cells; experiment: T cell modulation through mixed lymphocyte reaction, 3H-Thd uptake (Example 3); type: cell-based; settings: allogeneic mixed spleen cells, 3 days culture (FIG. 4)
Source text: A mixed lymphocyte reaction (MLR) is a representative experimentation technique for T cell modulation described in, for example, J. Exp. Med. 127 (5): 879-90, 1968. The influence of Compound (I) imposed on T cell modulation through this reaction was examined.
Spleens were extracted from C57BL/6N mice and BALB/c mice, grinded with glass slides with frosted areas, and then subjected to hemolysis, so as to obtain spleen cells. The C57BL/6N mouse spleen cells and the BALB/c mouse spleen cells were introduced into a complete medium (i.e., RPMI-1640 supplemented with 10% heat-inactivated FBS, 100 U/ml penicillin, 100 μg/ml streptomycin, and 55 μM 2-mercaptoethanol). The BALB/c mouse spleen cells were irradiated with 30 Gy X-ray to destroy the growth activity. The spleen cells of these allogeneic mice were each added to the final concentration of 1×10^5 cells/well and mixed (Alo), and Compound (I) or the EGFR tyrosine kinase inhibitor (i.e., AZD09291 or Erlotinib) adjusted to relevant concentrations was added thereto. As a control sample, a mixture of syngeneic C57BL/6N mouse spleen cells (Syn) was also prepared. The culture solution was seeded in a 96-well plate at 200 μl/well and then cultured in an incubator at 37° C. in the presence of 5% CO2 for 3 days. […] The amount of 3H-Thd uptake was measured using a liquid scintillation counter.

## C=CC(=O)N[C@H]1CCc2c(-c3cnc4ccccc4c3)c3c(N)ncnc3n2C1 [Compound (I), (S)—N-(4-amino-5-(quinolin-3-yl)-6,7,8,9-tetrahydropyrimido[5,4-b]indolizin-8-yl)acrylamide]
Mouse spleen cells; anti-CD3 antibody 3 μg/ml and anti-CD28 antibody 0.5 μg/ml constant, Compound (I) variable, 2 days, ELISA (FIG. 1)
  concentration of IL-2 produced by mouse spleen cells in the culture supernatant: increased as the amount of Compound (I) added increased
Mouse spleen cells; anti-CD3 antibody variable, anti-CD28 antibody 0.5 μg/ml, Compound (I) 0.1 μM vs 0.0 μM (FIG. 2)
  concentration of IL-2 produced by mouse spleen cells in the culture supernatant: IL-2 production was induced upon stimulation with the anti-CD3 antibody
[1]
  concentration of IL-2 produced by human peripheral blood mononuclear cells in the culture supernatant: induced IL-2 production
EGFR tyrosine kinase
  inhibition of EGFR tyrosine kinase: inhibit EGFR tyrosine kinase with high selectivity
[2]
  cytokine concentrations relative to the non-treatment group: induced the production of various types of cytokines
MC38
  suppression of cell growth (number of cells): did not suppress the growth of any cells
[3]
  amount of 3H-Thd uptake (amount of T cells grown through the mixed lymphocyte reaction): induced the growth of T cells
